Measurements taken from PubChem BioAssay (NCI).
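These data come from cells grown in 96-well plates and exposed to compound for 48 hours at five concentrations. TGI: concentration producing complete growth inhibition.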

Assays:
Experiment in all cases: NCI anticancer screen, dose series, 48 h
786-0 renal = system: 786-0 renal
A498 renal = system: A498 renal
A549 NSCLC = system: A549 NSCLC
ACHN renal = system: ACHN renal
BT-549 breast = system: BT-549 breast
CAKI-1 renal = system: CAKI-1 renal
CCRF-CEM leukemia = system: CCRF-CEM leukemia
COLO 205 colon = system: COLO 205 colon
DU-145 prostate = system: DU-145 prostate
EKVX NSCLC = system: EKVX NSCLC
HCT-116 colon = system: HCT-116 colon
HCT-15 colon = system: HCT-15 colon
HL-60(TB) leukemia = system: HL-60(TB) leukemia
HOP-62 NSCLC = system: HOP-62 NSCLC
HOP-92 NSCLC = system: HOP-92 NSCLC
HS 578T breast = system: HS 578T breast
HT29 colon = system: HT29 colon
IGROV1 ovarian = system: IGROV1 ovarian
K-562 leukemia = system: K-562 leukemia
KM12 colon = system: KM12 colon
LOX IMVI melanoma = system: LOX IMVI melanoma
M14 melanoma = system: M14 melanoma
MALME-3M melanoma = system: MALME-3M melanoma
MCF7 breast = system: MCF7 breast
MDA-MB-231 breast = system: MDA-MB-231 breast
MDA-MB-435 = system: MDA-MB-435
MDA-N = system: MDA-N
MOLT-4 leukemia = system: MOLT-4 leukemia
NCI-H23 lung = system: NCI-H23 lung
NCI-H460 lung = system: NCI-H460 lung
NCI-H522 lung = system: NCI-H522 lung
NCI/ADR-RES ovarian = system: NCI/ADR-RES ovarian
OVCAR-3 ovarian = system: OVCAR-3 ovarian
OVCAR-4 ovarian = system: OVCAR-4 ovarian
OVCAR-5 ovarian = system: OVCAR-5 ovarian
OVCAR-8 ovarian = system: OVCAR-8 ovarian
PC-3 prostate = system: PC-3 prostate
RPMI-8226 leukemia = system: RPMI-8226 leukemia
RXF 393 renal = system: RXF 393 renal
SF-268 CNS = system: SF-268 CNS
SF-295 CNS = system: SF-295 CNS
SF-539 CNS = system: SF-539 CNS
SK-MEL-2 melanoma = system: SK-MEL-2 melanoma
SK-MEL-28 melanoma = system: SK-MEL-28 melanoma
SK-MEL-5 melanoma = system: SK-MEL-5 melanoma
SK-OV-3 ovarian = system: SK-OV-3 ovarian
SN12C renal = system: SN12C renal
SNB-19 CNS = system: SNB-19 CNS
SNB-75 CNS = system: SNB-75 CNS
SR leukemia = system: SR leukemia
SW-620 colon = system: SW-620 colon
T-47D breast = system: T-47D breast
TK-10 renal = system: TK-10 renal
U251 CNS = system: U251 CNS
UACC-257 melanoma = system: UACC-257 melanoma
UACC-62 melanoma = system: UACC-62 melanoma
UO-31 renal = system: UO-31 renal
HCC-2998 colon = system: HCC-2998 colon
NCI-H226 lung = system: NCI-H226 lung

Structure (SMILES): O=C(/C=C/c1ccc(O)c(-c2cc(C(=O)/C=C/c3ccc(O)cc3)c(O)cc2O)c1)c1ccc(O)cc1O
- TGI (786-0 renal): > 50 µM
- TGI (A498 renal): > 50 µM
- TGI (A549 NSCLC): > 50 µM
- TGI (ACHN renal): > 50 µM
- TGI (BT-549 breast): > 50 µM
- TGI (CAKI-1 renal): > 50 µM
- TGI (CCRF-CEM leukemia): 37.3 µM
- TGI (COLO 205 colon): 24 µM
- TGI (DU-145 prostate): > 50 µM
- TGI (EKVX NSCLC): > 50 µM
- TGI (HCT-116 colon): 23.7 µM
- TGI (HCT-15 colon): > 50 µM
- TGI (HL-60(TB) leukemia): > 50 µM
- TGI (HOP-62 NSCLC): > 50 µM
- TGI (HOP-92 NSCLC): > 50 µM
- TGI (HS 578T breast): > 50 µM
- TGI (HT29 colon): 22.3 µM
- TGI (IGROV1 ovarian): > 50 µM
- TGI (K-562 leukemia): 35.1 µM
- TGI (KM12 colon): 31.7 µM
- TGI (LOX IMVI melanoma): 43.1 µM
- TGI (M14 melanoma): > 50 µM
- TGI (MALME-3M melanoma): > 50 µM
- TGI (MCF7 breast): > 50 µM
- TGI (MDA-MB-231 breast): > 50 µM
- TGI (MDA-MB-435): > 50 µM
- TGI (MDA-N): > 50 µM
- TGI (MOLT-4 leukemia): > 50 µM
- TGI (NCI-H23 lung): > 50 µM
- TGI (NCI-H460 lung): > 50 µM
- TGI (NCI-H522 lung): > 50 µM
- TGI (NCI/ADR-RES ovarian): > 50 µM
- TGI (OVCAR-3 ovarian): 43.8 µM
- TGI (OVCAR-4 ovarian): > 50 µM
- TGI (OVCAR-5 ovarian): > 50 µM
- TGI (OVCAR-8 ovarian): 24.7 µM
- TGI (PC-3 prostate): > 50 µM
- TGI (RPMI-8226 leukemia): > 50 µM
- TGI (RXF 393 renal): > 50 µM
- TGI (SF-268 CNS): > 50 µM
- TGI (SF-295 CNS): > 50 µM
- TGI (SF-539 CNS): 26.3 µM
- TGI (SK-MEL-2 melanoma): > 50 µM
- TGI (SK-MEL-28 melanoma): 22.1 µM
- TGI (SK-MEL-5 melanoma): > 50 µM
- TGI (SK-OV-3 ovarian): 48.3 µM
- TGI (SN12C renal): > 50 µM
- TGI (SNB-19 CNS): > 50 µM
- TGI (SNB-75 CNS): 36 µM
- TGI (SR leukemia): 28.4 µM
- TGI (SW-620 colon): > 50 µM
- TGI (T-47D breast): > 50 µM
- TGI (TK-10 renal): > 50 µM
- TGI (U251 CNS): > 50 µM
- TGI (UACC-257 melanoma): > 50 µM
- TGI (UACC-62 melanoma): 20.4 µM
- TGI (UO-31 renal): > 50 µM

Structure (SMILES): C=CCc1cccc2cc(C(=O)Nc3ccccc3)c(=N)oc12
- TGI (786-0 renal): > 100 µM
- TGI (A498 renal): 50.3 µM
- TGI (A549 NSCLC): > 100 µM
- TGI (ACHN renal): > 100 µM
- TGI (BT-549 breast): > 100 µM
- TGI (CAKI-1 renal): > 100 µM
- TGI (CCRF-CEM leukemia): > 100 µM
- TGI (COLO 205 colon): > 100 µM
- TGI (DU-145 prostate): > 100 µM
- TGI (HCC-2998 colon): 18.4 µM
- TGI (HCT-116 colon): > 100 µM
- TGI (HCT-15 colon): > 100 µM
- TGI (HL-60(TB) leukemia): > 100 µM
- TGI (HOP-62 NSCLC): > 100 µM
- TGI (HOP-92 NSCLC): > 100 µM
- TGI (HS 578T breast): > 100 µM
- TGI (HT29 colon): > 100 µM
- TGI (IGROV1 ovarian): > 100 µM
- TGI (K-562 leukemia): > 100 µM
- TGI (KM12 colon): > 100 µM
- TGI (LOX IMVI melanoma): > 100 µM
- TGI (M14 melanoma): > 100 µM
- TGI (MALME-3M melanoma): 58.7 µM
- TGI (MCF7 breast): > 100 µM
- TGI (MDA-MB-231 breast): > 100 µM
- TGI (MDA-MB-435): > 100 µM
- TGI (MDA-N): > 100 µM
- TGI (MOLT-4 leukemia): > 100 µM
- TGI (NCI-H226 lung): > 100 µM
- TGI (NCI-H23 lung): > 100 µM
- TGI (NCI-H460 lung): > 100 µM
- TGI (NCI-H522 lung): > 100 µM
- TGI (NCI/ADR-RES ovarian): > 100 µM
- TGI (OVCAR-3 ovarian): > 100 µM
- TGI (OVCAR-4 ovarian): 74.9 µM
- TGI (OVCAR-5 ovarian): > 100 µM
- TGI (OVCAR-8 ovarian): > 100 µM
- TGI (PC-3 prostate): > 100 µM
- TGI (RPMI-8226 leukemia): > 100 µM
- TGI (RXF 393 renal): > 100 µM
- TGI (SF-268 CNS): > 100 µM
- TGI (SF-539 CNS): > 100 µM
- TGI (SK-MEL-2 melanoma): 38.5 µM
- TGI (SK-MEL-28 melanoma): > 100 µM
- TGI (SK-MEL-5 melanoma): > 100 µM
- TGI (SK-OV-3 ovarian): > 100 µM
- TGI (SN12C renal): > 100 µM
- TGI (SNB-19 CNS): > 100 µM
- TGI (SNB-75 CNS): > 100 µM
- TGI (SR leukemia): > 100 µM
- TGI (SW-620 colon): > 100 µM
- TGI (T-47D breast): 85.7 µM
- TGI (U251 CNS): > 100 µM
- TGI (UACC-257 melanoma): > 100 µM
- TGI (UACC-62 melanoma): > 100 µM
